Experimental findings from patent US9981916B2 (Genentech, Inc., priority 2013, dated 2018) are described below.

For the assay, the target named is T1, RORc ligand binding domain (Homo sapiens, UniProt P51449).
T1 construct: host or cells: E. coli
T1 sequence (P51449 269-508 limits assumed): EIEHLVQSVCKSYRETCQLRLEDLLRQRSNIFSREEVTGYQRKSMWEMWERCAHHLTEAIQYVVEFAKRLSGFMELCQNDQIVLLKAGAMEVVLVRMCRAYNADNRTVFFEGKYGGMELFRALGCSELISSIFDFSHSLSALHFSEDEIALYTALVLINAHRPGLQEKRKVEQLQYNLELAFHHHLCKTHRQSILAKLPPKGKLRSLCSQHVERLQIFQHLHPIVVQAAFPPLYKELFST
Put plainly: In vitro RORc ligand binding assay (25-[3H]hydroxycholesterol displacement, filter binding). Conditions: 6 nM 25-[3H]hydroxycholesterol, 0.6 ug/mL RORc receptor, 3 h at 25° C. An outline of the steps:
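Filter-binding displacement of 6 nM 25-[3H]hydroxycholesterol from RORc receptor (0.6 ug/mL) in 50 mM HEPES pH 7.4, 150 mM NaCl, 5 mM MgCl2, 1 mM DTT, 0.01% BSA, 5% DMSO; 3 h at 25° C. NSB defined with 1 uM 25-hydroxycholesterol; scintillation counting gave Kiapp, IC50 or % inhibition (screening at 1 and 10 uM).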
Turning to `Cc1nc([C@@]23CC[C@@H](c4cc(-c5c(F)cccc5F)nnc42)C3(C)C)co1` [Example 192, 4-((5R,8S)-3-(2,6-difluorophenyl)-9,9-dimethyl-5,6,7,8-tetrahydro-5,8-methanocinnolin-8-yl)-2-methyloxazole], the IC50 (in general, the point on the concentration scale where inhibition reaches its midpoint) was 202 nM.
Under `Cc1ocnc1[C@@]12CC[C@@H](c3cc(-c4c(F)cccc4F)nnc31)C2(C)C` [Example 193, 4-((5R,8S)-3-(2,6-difluorophenyl)-9,9-dimethyl-5,6,7,8-tetrahydro-5,8-methanocinnolin-8-yl)-5-methyloxazole] stands 68 nM.
`CC1(C)[C@H]2CC[C@]1(c1ccno1)c1nnc(-c3c(F)cccc3F)cc12` [Example 194, 5-((5R,8R)-3-(2,6-difluorophenyl)-9,9-dimethyl-5,6,7,8-tetrahydro-5,8-methanocinnolin-8-yl)isoxazole] returned an IC50 of 50 nM.
Under `COc1cnc([C@@]23CC[C@@H](c4cc(-c5c(F)cccc5F)nnc42)C3(C)C)o1` [Example 195, 2-((5R,8R)-3-(2,6-difluorophenyl)-9,9-dimethyl-5,6,7,8-tetrahydro-5,8-methanocinnolin-8-yl)-5-methoxyoxazole] stands 40 nM; under `CN(C)Cc1nnc([C@@]23CC[C@@H](c4cc(-c5c(F)cccc5F)nnc42)C3(C)C)o1` [Example 196, 1-(5-((5R,8R)-3-(2,6-difluorophenyl)-9,9-dimethyl-5,6,7,8-tetrahydro-5,8-methanocinnolin-8-yl)-1,3,4-oxadiazol-2-yl)-N,N-dimethylmethanamine], 1890 nM.
Under `CC1(C)[C@H]2CC[C@]1(c1ccon1)c1nnc(-c3c(F)cccc3F)cc12` [Example 197, 3-((5R,8R)-3-(2,6-difluorophenyl)-9,9-dimethyl-5,6,7,8-tetrahydro-5,8-methanocinnolin-8-yl)isoxazole] stands 44 nM; under `CC1(C)[C@H]2CC[C@]1(C(=O)N1CC(OCc3ccccc3)C1)c1nnc(-c3c(F)cccc3F)cc12` [Example 198, (3-(benzyloxy)azetidin-1-yl)((5R,8R)-3-(2,6-difluorophenyl)-9,9-dimethyl-5,6,7,8-tetrahydro-5,8-methanocinnolin-8-yl)methanone], 3250 nM.
Under `CC1(C)[C@H]2CC[C@]1(C(=O)N1CC(O)C1)c1nnc(-c3c(F)cccc3F)cc12` [Example 199, ((5R,8R)-3-(2,6-difluorophenyl)-9,9-dimethyl-5,6,7,8-tetrahydro-5,8-methanocinnolin-8-yl)(3-hydroxyazetidin-1-yl)methanone] stands 461 nM; under `CC1(C)[C@@H]2CC[C@@]1(I)c1nnc(-c3ccccc3F)cc12` [Example 200, (5R,8S)-3-(2-fluorophenyl)-8-iodo-9,9-dimethyl-5,6,7,8-tetrahydro-5,8-methanocinnoline], 338 nM; under `CC1(C)[C@@H]2CC[C@@]1(C(=O)NC1CCC1)c1nnc(-c3c(F)cccc3F)cc12` [Example 201, (5S,8S)-N-cyclobutyl-3-(2,6-difluorophenyl)-9,9-dimethyl-5,6,7,8-tetrahydro-5,8-methanocinnoline-8-carboxamide], 759 nM.
Molecule `CC1(C)[C@@H]2CC[C@@]1(C(=O)NCC1CC1)c1nnc(-c3c(F)cccc3F)cc12` [Example 202, (5S,8S)-N-(cyclopropylmethyl)-3-(2,6-difluorophenyl)-9,9-dimethyl-5,6,7,8-tetrahydro-5,8-methanocinnoline-8-carboxamide] gave a half-inhibitory concentration (IC50) of 193 nM. Against the preceding molecule, the IC50 is about 3.9-fold lower.
Under `CC(=O)N(C)C1CCN(C(=O)[C@]23CC[C@H](c4cc(-c5c(F)cccc5F)nnc42)C3(C)C)C1` (stereo partly drawn) [Example 203, N-(1-((5S,8S)-3-(2,6-difluorophenyl)-9,9-dimethyl-5,6,7,8-tetrahydro-5,8-methanocinnoline-8-carbonyl)pyrrolidin-3-yl)-N-methylacetamide] stands 1220 nM.
Regarding `CC1(C)[C@@H]2CC[C@@]1(C(=O)N1CCC[C@@H]1CO)c1nnc(-c3c(F)cccc3F)cc12` [Example 204, ((5S,8S)-3-(2,6-difluorophenyl)-9,9-dimethyl-5,6,7,8-tetrahydro-5,8-methanocinnolin-8-yl) ((R)-2-(hydroxymethyl)pyrrolidin-1-yl)methanone], the IC50 turned out to be 600 nM.
To `CC1(C)[C@@H]2CC[C@@]1(C(=O)Nc1ccc(C#N)cn1)c1nnc(-c3c(F)cccc3F)cc12` [Example 205, (5S,8S)-N-(5-cyanopyridin-2-yl)-3-(2,6-difluorophenyl)-9,9-dimethyl-5,6,7,8-tetrahydro-5,8-methanocinnoline-8-carboxamide] belongs 2820 nM; to `CC1(C)[C@@H]2CC[C@@]1(C(=O)NC1CCCC1)c1nnc(-c3c(F)cccc3F)cc12` [Example 206, (5S,8S)-N-cyclopentyl-3-(2,6-difluorophenyl)-9,9-dimethyl-5,6,7,8-tetrahydro-5,8-methanocinnoline-8-carboxamide], 1230 nM; to `CC1(C)[C@@H]2CC[C@@]1(C(=O)N1CCC(F)(F)C1)c1nnc(-c3c(F)cccc3F)cc12` [Example 207, ((5S,8S)-3-(2,6-difluorophenyl)-9,9-dimethyl-5,6,7,8-tetrahydro-5,8-methanocinnolin-8-yl)(3,3-difluoropyrrolidin-1-yl)methanone], 191 nM.
`CC1(C)[C@@H]2CC[C@@]1(C(=O)N1CCC(C(F)(F)F)C1)c1nnc(-c3c(F)cccc3F)cc12` (stereo partly drawn) [Example 208, ((5S,8S)-3-(2,6-difluorophenyl)-9,9-dimethyl-5,6,7,8-tetrahydro-5,8-methanocinnolin-8-yl)(3-(trifluoromethyl)pyrrolidin-1-yl)methanone] registered an IC50 of 142 nM. The IC50 values of the last two molecules are within 1.5-fold of each other.
To `CC(C)CNC(=O)[C@]12CC[C@H](c3cc(-c4c(F)cccc4F)nnc31)C2(C)C` [Example 209, (5S,8S)-3-(2,6-difluorophenyl)-N-isobutyl-9,9-dimethyl-5,6,7,8-tetrahydro-5,8-methanocinnoline-8-carboxamide] belongs 1550 nM.
Turning to `CC1(C)[C@@H]2CC[C@@]1(C(=O)NCC(F)F)c1nnc(-c3c(F)cccc3F)cc12` [Example 210, (5S,8S)-N-(2,2-difluoroethyl)-3-(2,6-difluorophenyl)-9,9-dimethyl-5,6,7,8-tetrahydro-5,8-methanocinnoline-8-carboxamide], the half-maximal inhibitory concentration (IC50) came to 528 nM.
Under `CN(C)C(=O)C1CCN(C(=O)[C@]23CC[C@H](c4cc(-c5c(F)cccc5F)nnc42)C3(C)C)C1` (stereo partly drawn) [Example 211, 1-((5S,8S)-3-(2,6-difluorophenyl)-9,9-dimethyl-5,6,7,8-tetrahydro-5,8-methanocinnoline-8-carbonyl)-N,N-dimethylpyrrolidine-3-carboxamide] stands 726 nM.
`CNC(=O)[C@@H]1[C@@H]2CN(C(=O)[C@]34CC[C@H](c5cc(-c6c(F)cccc6F)nnc53)C4(C)C)C[C@@H]21` [Example 212, (1R,5S,6R)-3-((5S,8S)-3-(2,6-difluorophenyl)-9,9-dimethyl-5,6,7,8-tetrahydro-5,8-methanocinnoline-8-carbonyl)-N-methyl-3-azabicyclo[3.1.0]hexane-6-carboxamide] had a 50% inhibitory concentration (IC50) of 2140 nM.
As for `COC(=O)C1CCN(C(=O)[C@]23CC[C@H](c4cc(-c5c(F)cccc5F)nnc42)C3(C)C)C1` (stereo partly drawn) [Example 213, methyl 1-((5S,8S)-3-(2,6-difluorophenyl)-9,9-dimethyl-5,6,7,8-tetrahydro-5,8-methanocinnoline-8-carbonyl)pyrrolidine-3-carboxylate], the half-inhibitory concentration (IC50) amounted to 32 nM.
